Laboratory results taken from patent US7371728B2, “Prostate-specific antigen probes for optical imaging” (Kaohsiung Medical University, priority 2005, dated 2008).
“Also recorded” adds a separate entry of the source. Square brackets hold non-standard residues; d marks the D form. Ends that are not written are not given here. * marks the point of attachment. FITC = O=C1OC2(c3ccc(O)cc3Oc3cc(O)ccc32)c2ccc(NC(=S)*)cc21; Hyp = O=C(O)[C@@H]1C[C@@H](O)CN1; Chg = N[C@H](C(=O)O)C1CCCCC1

Columns and labels:
[1] = target: T1, prostate-specific antigen (Homo sapiens, UniProt P07288); assay: HPLC study of peptide specificity for prostate-specific antigen; type: biochemical; settings: in the presence of prostate-specific antigen enzyme; fluorescence detection 480/525 nm
T1 sequence (P07288 25-261): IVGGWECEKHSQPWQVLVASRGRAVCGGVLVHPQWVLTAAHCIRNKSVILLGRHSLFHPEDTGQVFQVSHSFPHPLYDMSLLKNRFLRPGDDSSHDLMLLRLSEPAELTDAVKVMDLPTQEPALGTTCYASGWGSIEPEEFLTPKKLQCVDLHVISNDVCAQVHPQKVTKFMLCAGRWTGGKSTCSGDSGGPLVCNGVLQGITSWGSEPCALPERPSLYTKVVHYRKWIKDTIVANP
Excerpt: The Study of Peptide Specificity for Prostate-Specific Antigen: • The high performance liquid chromatography is used for application in study of peptide separation, peptide purity analysis and specific enzyme-cutting specificity for a peptide substrate. […] The goal of the study of the present invention is to develop prostate peptide substrates and enzymes by in-vitro experiments.
The chromatographic diagrams of specificity analysis of the prostate peptide substrates and prostate-specific antigen are shown in FIGS. 3 and 4. The conditions of the HPLC are as follows: a reverse C18 chromatography column, mobile phase is methyl alcohol: 1% triethylamine=60:40(v/v), flow rate is 0.5 ml/min. […] There are two peaks in the spectrums if HPLC runs in the presence of the prostate-specific antigen with the retention times being 2.7 and 3.2 min as shown in FIG. 3.

[2] = target: T1, prostate-specific antigen; assay: Quenching and non-quenching study: fluorescence intensity over time after reaction with prostate-specific antigen; type: biochemical; settings: 35 minutes
Excerpt: FIG. 5. is a fluorescence absorption verse time diagram showing fluorescence intensity of a control peptide probe (×) for a prostate peptide substrate probe Cy-prostate-PGC (▪), control peptide probe (Δ) and a prostate peptide probe in the presence of a prostate-specific antigen (♦) according to the present invention;
At different time, a prostate peptide substrate and prostate control peptide are reacted with an enzyme of prostate-specific antigen to record its fluorescence spectrum and the results are shown in FIG. 5. […] When the reaction time for the reaction between prostate peptide substrate and the prostate-specific antigen reaches 35 minutes and the signal intensity becomes 5 times as that of the original fluorescence intensity.

- fluorescence signal intensity relative to the original fluorescence intensity [2]: 5 times
Substance: G[Hyp]AS[Chg]QSLMK(FITC)C-NH2 [prostate peptide substrate]
- cutting of the peptide by prostate-specific antigen (HPLC) [1]: can cut Gln-Ser residue; also recorded: one major cut
